Results published in patent US20100003191A1, “AURONE DERIVATIVE-CONTAINING COMPOSITION FOR DIAGNOSIS” (NAGASAKI UNIVERSITY, priority 2006, published 2010).

Tests used:
[1] = male, ddY, mouse, in vivo, 2 min
Experimental: Animals were decapitated at 2, 10, 30 or 60 min after the injection, and the blood was collected. Then, major organs were removed, and weights and radioactivities thereof were measured.
In vivo radioactivity distribution experiments of ^125I-labeled aurone derivatives were performed using 5-week-old normal mice.

[2] = system: senile plaque amyloid on hippocampal sections from Alzheimer's disease patients; experiment: In vitro autoradiography and immunostaining on brain sections from Alzheimer's disease patients (Example 2); format: binding, human; conditions: AD patient brain sections, FIG. 10
Experimental: Hippocampal sections (5 μm thick) from Altzheimer's disease patients were dewaxed by washing with xylene ((5 min×2) and with 100% EtOH, 100% EtOH, 95% EtOH, 85% EtOH and 70% EtOH (1 min×1 for each). After air-drying, the sections were reacted with a ligand (40% EtOH solution) for 1 h. Then, the sections were washed with saturated aqueous lithium carbonate solution in 40% EtOH (2 min×2), with 40% EtOH (2 min×2) and with water (30 sec×1), and immobilized on imaging plates for 24 h. Subsequently, the sections were analyzed with BAS2500. Further, using adjacent sections, immunostaining was performed by conventional methods with anti-amyloid β(1-42) antibody.
Autoradiography was performed on brain sections from Altzheimer's disease patients with [^125I]26 (FIG. 10).

[3] = system: senile plaques on brain sections from Tg2576 mice; experiment: Fluorescence staining and immunostaining on brain sections from transgenic mice; format: binding; conditions: Tg2576 mouse brain sections, FIG. 9
Experimental: As Alzheimer's disease model mouse, Tg2576 mice (20-month-old) were used. Brain tissues were removed and frozen in carboxymethyl cellulose (4%). Then, a series of sections 10 μm thick were prepared therefrom. The thus prepared sections were reacted with a ligand (a solution of Compound 26 and thioflavin in 50% EtOH) for 3 min. Then, the sections were washed with 50% EtOH (1 min×twice) and observed under a fluorescence microscope. Further, using adjacent sections, immunostaining was performed by conventional methods with anti-amyloid (3(1-42) antibody.
Fluorescence staining was performed on brain sections from Alzheimer's disease model mouse (Tg2576) utilizing the fluorescence property of Compound 26 (FIG. 9).

Ab(1-42) aggregates = molecular target: T1, Ab(1-42) aggregates (Homo sapiens, UniProt P05067); experiment: Binding inhibition experiment using Ab(1-42) aggregates, inhibition constants (Ki), radioligand [125I](Z)-2-(4-aminobenzylidene)-5-iodobenzofuran-3(2H)-one (Table 14); conditions: Aβ42 aggregates
T1 construct: Ab(1-42) was dissolved in 10 mM phosphate buffer containing 1 mM EDTA (pH 7.4)
Experimental: Ab(1-42) was dissolved in 10 mM phosphate buffer containing 1 mM EDTA (pH 7.4) to give a concentration of 0.25 mg/mL, and the mixture was incubated at 37° C. for 42 h to thereby prepare Ab(1-42) aggregates.
[…] of 10% EtOH solution, […] of a solution of [^125I](Z)-2-(4-aminobenzylidene)-5-iodobenzofuran-3(2H)-one in 10% ethanol, and […] of a sample solution at various concentrations ([…]) were mixed. Finally, […] of Ab(1-42) aggregate solution was added thereto, and the mixture was allowed to stand at room temperature for 3 h. Ab(1-42) aggregate-bound compounds and nonbound compounds were separated with a Brandel M-24R cell harvester using a Whatman GF/B filter. Radioactivities remaining on the filter were measured with a γ-counter, and inhibition curves were created using Graph Pad Prism 4.0 to calculate inhibition constants (Ki values).
In order to calculate inhibition constants (Ki values) for various aurone derivatives synthesized, binding inhibition experiments were performed using [^125I](Z)-2-(4-aminobenzylidene)-5-iodobenzofuran-3(2H)-one as a radioactive ligand. […] Thus, aurone derivatives have shown a high binding property to amyloid aggregates. No difference in binding property resulting from the length of introduced ethyleneoxy chains was observed.

T1 sequence (P05067 672-713 limits assumed): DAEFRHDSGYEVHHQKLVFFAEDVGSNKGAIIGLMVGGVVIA

For `O=C1/C(=C/c2ccc(OCCO)cc2)Oc2ccc(I)cc21` [Compound 26, (Z)-2-(4-(2-hydroxyethoxy)benzylidene)-5-iodobenzofuran-3(2H)-one], the “migration of radioactivity to the brain” value [1] was 2.4-4.5 % ID/g, the “radioactivity in autoradiography vs immunostaining” value [2] was “observed at the positive site of immunostaining with anti-amyloid antibody” and the “fluorescence image on brain sections” value [3] was “consistent with the fluorescence image of thioflavin S on adjacent section and the immunostaining image of anti-amyloid antibody on adjacent section”. For the same compound, the Ki (Ab(1-42) aggregates) was 1.05 ± 0.06 nM.
